Here are results for 4 molecules from patent US6664231B1, “Anti-fungal peptides” (priority 1993, dated 2003).

One experiment has as its system Candida albicans SLU-1. Nature of the experiment: Radial diffusion assay (Example 3), wild type strain. In kind it is cell-based. The note with it: FIG. 2A. The procedure:
For the radial diffusion assays, Candida albicans SLU-1 were grown as described above and SLU-2G were grown overnight in Sabouraud dextrose broth supplemented with 10 μg/mL amphotericin B and 5 μg/mL ceftriaxone at 37° C. Cultures were diluted 1:25 into fresh, unsupplemented broth and allowed to grow for 5 hours at 37° C. Cells were pelleted at 1,500×g for 5 minutes at 4° C. Supernatant was decanted and replaced with 5 mL of 10 mM phosphate buffer, pH 7.4. After centrifugation the cell pellets were resuspended with 5 mL phosphate buffer for an OD570 determination. One OD570 for SLU-1 cells was 3×10^7 CFU/mL and for SLU-2G cells was 5×10^6 CFU/mL.
Cells were added to 10 mL of molten, cooled (˜45° C.) underlayer agarose to a concentration of 1×10^6/mL and the suspension was poured into a level square petri plate with gentle rocking to allow even distribution and solidification to a uniform thickness of about 1 mm. Wells were cut into the hardened agarose with a sterilize, 3 mm diameter punch with vacuum.
Peptides were two-fold serially diluted with DPBS from a starting concentration of approximately 1 mg/mL. Amphotericin B and nystatin were similarly diluted starting at 100 and 225 μg/mL, respectively. Five μL were added per well and allowed to diffuse at 37° C. for 1.5-2.0 hours. Then 10 mL of molten overlayer agarose were added and the plates were incubated inverted at 37° C. overnight. Plates were stained with a dilute Coomassie solution, inhibition zones were measured with calipers and net areas were calculated, then converted to pmol values by PROBIT analysis. The results of a representative experiment are shown in FIG. 2A for the SLU-1 strain and FIG. 2B for the SLU-2G strain. In FIGS. 2A and 2B, the fungicidal activity is represented for XMP.13 as open circles; for XMP.37 as closed circles; for XMP.97 as open triangles; for XMP.127 as closed triangles; for amphotericin B as open squares; and for nystatin as closed squares. The pmol for a 30 mm^2 zone of inhibition were calculated to be: for XMP.13, 689 pmol against SLU-1 and 129 pmol against SLU-2G; for XMP.37, 231 pmol against SLU-1 and 75 pmol against SLU-2G; for XMP.97, 670 pmol against SLU-1 and 161 pmol against SLU-2G; for XMP.127, 935 pmol against SLU-1 and 116 pmol against SLU-2G; for amphotericin B, 36 pmol against SLU-1 and >541 pmol for SLU-2G; and for nysttin, 98 pmol against SLU-1 and >1,215 pmol against SLU-2G.

The test system of experiment [1] is C. albicans (CA-1, Strain SLU-1). Briefly: Radial diffusion assay. In kind it is cell-based, Candida albicans. The note with it: pmoles of peptide added to well to achieve a 30 mm^2 zone, PROBIT analysis, crude or purified (P′) peptide. In short, it runs like this:
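Yeast at 1×10^6 CFU/mL in agarose underlayer (3% Sabouraud, 10 mM sodium phosphate pH 7.4); 2-fold peptide dilutions in D-PBS from ~1 mg/mL loaded into wells, 3 h at 37° C, then nutrient overlayer overnight. Value: pmol/well giving 30 mm^2 net clear zone, by PROBIT regression.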

Regarding `C[C@@H]1[C@H](O)[C@@H](C)/C=C/C=C/C=C/C=C/C=C/C=C/C=C/[C@H](O[C@@H]2O[C@H](C)[C@@H](O)[C@H](N)[C@@H]2O)C[C@@H]2O[C@](O)(C[C@@H](O)C[C@@H](O)[C@H](O)CC[C@@H](O)C[C@@H](O)CC(=O)O[C@H]1C)C[C@H](O)[C@H]2C(=O)O` [Amphotericin B, amphotericin B, reference compound], the “pmol for a 30 mm^2 zone of inhibition against SLU-1” value (from here on “pmol … of inhibition against SLU-1”) with Candida albicans SLU-1 is given as 36 pmol.

As to H-KSKVGWAIQLFHKK-NH2 [XMP.37], in experiment [1], the “C. albicans pmol/30 mm^2 zone” value is 253 pmol/30 mm^2 zone. Also, the “pmol … of inhibition against SLU-1” value with Candida albicans SLU-1 amounted to 231 pmol.

As for H-KSKVGWLIQLFHKK-NH2 [XMP.13], the “C. albicans pmol/30 mm^2 zone” value in experiment [1] is reported as 541 pmol/30 mm^2 zone; in experiment [1] (listed as XMP.13P′), 222 pmol/30 mm^2 zone. The “pmol … of inhibition against SLU-1” value with Candida albicans SLU-1 was 689 pmol.

As to H-SKVKWLIQLFHKK-NH2 [XMP.284], the entries for the “C. albicans pmol/30 mm^2 zone” value in experiment [1] and in experiment [1] (listed as XMP.284P′) were 1,460 pmol/30 mm^2 zone and 373 pmol/30 mm^2 zone, respectively.
